Experimental data from US8530404B2, “Compounds and methods for treatment of cancer” (FibroGen, Inc., priority 2005, dated 2013).

Key:
[1] = system: human H-460-GFP lung tumors; assay: Orthotopically implanted human H-460-GFP lung tumor mouse xenograft, survival and metastasis (Example 3); format: in vivo; settings: for Metastatic Incidence (proportion of animals exhibiting mediastinal lymph node metastasis): vehicle 9/10
Method: To examine the effect of methods and compounds of the present invention in a metastatic model of tumor progression, compounds of the invention were administered to orthotopically implanted H-460-GFP xenografted animals. Tumor models employing surgical orthotopic implantation (SOI) into the organ of origin of the original tumor are regarded as representative of cancer progression and metastasis in humans. Orthotopic implantation of H-460 increases the rate of tumor metastasis.
This experiment is carried out as described in Example 1 above, with the following modifications. To aid in identification and scoring of metastasis, the human H-460 lung cancer cell line was replaced by genetically-engineered tumors of GFP-transfected H-460 cells. 1-2 mm^3 H460-GFP lung tumor fragments were implanted by surgical orthotopic implantation (SOI) and sutured directly into lung tissue. (Yang et al., (1998) Cancer Res 58:4217-4221.) Dosing was initiated immediately after successful confirmation of tumor take by fluorescent GFP imaging (˜5 days following tumor implantation). Doxorubicin (DOX, 7.5 mg/kg, i.v. administration) was used as a chemotherapy control, and was administered on treatment days 3, 7, and 11.
In addition to weekly caliper measurement of primary tumor size, GFP imaging was performed on animals to monitor primary tumor progression and metastasis, starting the first day of treatment. Study endpoints were reached when an average tumor size of 2 cc or three morbid mice appear in any one group, whichever occurs first, regardless of treatment duration. Each animal was checked daily for mortality or signs of morbidity. Morbid animals were frozen. All animals, including dead animals, were examined by GFP imaging for primary tumor and metastasis at necropsy. Imaging and caliper measurements were used to determine the effects of treatment. Primary tumors were excised, measured and weighed at necropsy. Blood samples were taken during terminal sacrifice and complete blood counts (CBC) and reticulocyte analysis were performed.
Tumor metastasis is associated with increased morbidity and mortality in humans with metastatic cancer and in animal models of metastatic cancer. […] The increased morbidity and mortality were recorded and animals were preserved for subsequent necropsy. The study was terminated after >3 animals were found morbid in the vehicle group on treatment day 14, at which point the remaining animals were sacrificed to evaluate and compare tumor progression in the various treatment groups.
To determine metastatic frequency, the thoracic and abdominal cavities of animals were examined by fluorescent imaging.

[2] = system: CDKN1C gene expression; assay: CDKN1C gene expression in Kelly neuroblastoma cells; format: cell-based; settings: Kelly, read-out: fold-increase in CDKN1C mRNA expression
Method: (§1) To identify compounds useful in the methods of the present invention, the following studies were performed. The effect of compounds of the present invention on expression of various genes associated with anti-tumor activity (e.g., genes having anti-proliferative activity, genes having pro-apoptotic activity, genes having anti-tumor activity, etc.). In these experiments, the effect of compounds on BNIP3, BNIP3L, NDRG1, CDKN1C, and REDD1/RTP801 gene expression in various types of cultured tumor cells line was examined, including Hep3B cells (human hepatocellular carcinoma), Kelly neuroblastoma cells, and MCF7 cells (human breast cancer)
The effects of various compounds of the present invention on the expression of genes associated with tumor growth and progression were examined in Kelly neuroblastoma cells as follows. Kelly neuroblastoma cells were grown in RPMI media. For each experiment, Kelly neuroblastoma cells were added to 96-well tissue culture plates (approximately 40,000 cells per well) such that the plated cells reached confluence the following day. On the following day, the cells were washed and the media replaced with RPMI containing 0.5% FBS. Various compounds of the present invention were added to the cultured cells to a final concentration of 20 μM, and the cells cultured for an additional 20-24 hours. DMSO (0.5%) was added to control cell cultures.
RNA was isolated from the Kelly neuroblastoma cells using a commercial kit and used for the preparation of cDNA. BNIP3, CDKN1C, and 18S RNA levels were measured using commercial kits (18S, Applied Biosystems cat#4319413E); BNIP3, Applied Biosystems cat#HS00969293 MH). RNA levels for BNIP3 and CDKN1C were normalized to that of 18S RNA and is presented as fold-change compared to that observed in DMSO control cultures. Kelly cell NDRG1 and BNIP3L mRNA levels were measured by Affymetrix microarray in a separate study. Cells were harvested after 6 hours incubation with 20 μM test compound or DMSO (0.5%) as control. RNA was isolated and labeled probes were prepared and hybridized to U133 Plus 2.0 Affymetrix microarrays. Changes in gene expression levels are presented as fold change compared to that of control (0.5% DMSO-treated) cultures.

[3] = system: CDKN1C gene expression; assay: CDKN1C gene expression in MCF7 cells; format: cell-based; settings: Homo sapiens, MCF7, read-out: fold-increase in CDKN1C mRNA expression
Method: as §1
The effects of various compounds of the present invention on the expression of genes associated with tumor growth and progression were examined in MCF7 breast cancer cells as follows. In some experiments, MCF7 (ATCC) cells were plated in 96-well tissue culture dishes (approximately 20,000 cells per well) and cultured in DMEM media supplemented with 10% serum. The following day, the cells were washed and the media was replaced with DMEM containing 0.5% FBS. Various compounds of the present invention were added to the cultured cells to a final concentration of 20 μM, and the cells cultured for an additional 20-24 hours. DMSO (0.5%) was added to control cell cultures. RNA was isolated as described above. Changes in gene expression levels are presented as fold change compared to that of control (0.5% DMSO-treated) cultures.

## O=C(O)CNC(=O)c1nc(Cl)c2ccccc2c1O [Compound A, [(1-Chloro-4-hydroxy-isoquinoline-3-carbonyl)-amino]-acetic acid]
[1]; 20 mg/kg
  Metastatic Incidence (proportion of animals exhibiting mediastinal lymph node metastasis): 8/10
[1]; 60 mg/kg
  Metastatic Incidence (proportion of animals exhibiting mediastinal lymph node metastasis): 7/10
[1]; treatment day 9, 20 mg/kg
  proportion of surviving animals: 10/10
[1]; treatment day 9, 60 mg/kg
  proportion of surviving animals: 10/10
[1]; treatment day 11, 20 mg/kg
  proportion of surviving animals: 10/10
[1]; treatment day 11, 60 mg/kg
  proportion of surviving animals: 10/10
[1]; treatment day 12, 20 mg/kg
  proportion of surviving animals: 10/10
[1]; treatment day 12, 60 mg/kg
  proportion of surviving animals: 9/10
[1]; treatment day 13, 20 mg/kg
  proportion of surviving animals: 8/10
[1]; treatment day 13, 60 mg/kg
  proportion of surviving animals: 9/10
[1]; treatment day 14, 20 mg/kg
  proportion of surviving animals: 8/10
[1]; treatment day 14, 60 mg/kg
  proportion of surviving animals: 9/10

## C[C@H](NC(=O)c1ncc2cc(Oc3ccccc3)ccc2c1O)C(=O)O [Compound B, (S)-2-[(4-Hydroxy-7-phenoxy-isoquinoline-3-carbonyl)-amino]-propionic acid]
[2]
  fold induction at 20 µM: 91
[3]
  fold induction at 20 µM: 0.5

## COc1ccc(Oc2ccc3c(O)c(C(=O)NCC(=O)O)ncc3c2)cc1 [Compound C, {[4-Hydroxy-7-(4-methoxy-phenoxy)-isoquinoline-3-carbonyl]-amino}-acetic acid]
[1]; 20 mg/kg
  Metastatic Incidence (proportion of animals exhibiting mediastinal lymph node metastasis): 5/10
[1]; treatment day 9, 20 mg/kg
  proportion of surviving animals: 10/10
[1]; treatment day 11, 20 mg/kg
  proportion of surviving animals: 10/10
[1]; treatment day 12, 20 mg/kg
  proportion of surviving animals: 9/10
[1]; treatment day 13, 20 mg/kg
  proportion of surviving animals: 8/10
[1]; treatment day 14, 20 mg/kg
  proportion of surviving animals: 8/10
[2]
  fold induction at 20 µM: 49
[3]
  fold induction at 20 µM: 0.6

## Cc1nc(C(=O)NCC(=O)O)c(O)c2ccc(Oc3ccccc3)cc12 [Compound D, [(4-Hydroxy-1-methyl-7-phenoxy-isoquinoline-3-carbonyl)-amino]-acetic acid]
[1]; 20 mg/kg
  Metastatic Incidence (proportion of animals exhibiting mediastinal lymph node metastasis): 9/10
[1]; treatment day 9, 20 mg/kg
  proportion of surviving animals: 10/10
[1]; treatment day 11, 20 mg/kg
  proportion of surviving animals: 9/10
[1]; treatment day 12, 20 mg/kg
  proportion of surviving animals: 9/10
[1]; treatment day 13, 20 mg/kg
  proportion of surviving animals: 9/10
[1]; treatment day 14, 20 mg/kg
  proportion of surviving animals: 9/10
[2]
  fold induction at 20 µM: 382

## O=C(O)CNC(=O)c1ncc2cc(Oc3ccc(F)cc3)ccc2c1O [Compound E, {[7-(4-fluoro-phenoxy)-4-hydroxy-isoquinoline-3-carbonyl]-amino}-acetic acid]
[1]; treatment day 9, 20 mg/kg
  proportion of surviving animals: 9/10
[1]; treatment day 11, 20 mg/kg
  proportion of surviving animals: 9/10
[1]; treatment day 12, 20 mg/kg
  proportion of surviving animals: 9/10
[1]; treatment day 13, 20 mg/kg
  proportion of surviving animals: 8/10
[1]; treatment day 14, 20 mg/kg
  proportion of surviving animals: 8/10
[2]
  fold induction at 20 µM: 184
[3]
  fold induction at 20 µM: 0.4
